The test system of the experiment is liver. The experiment can be described thus: Liver thermogenesis in AKR mice with IR transparent adhesive. The format is in vivo. As to conditions: AKR mice on high-fat diet, 75 mg/kg i.g., 5 hours. How it is done: FIG. 31. Liver thermogenesis in AKR mice 5 hours after treatment with the nucleoside reverse transcriptase inhibitor (NRTI) D4T detected by IR thermography. Male AKR mice were housed 5 per cage and maintained on high fat diet (58% kCals as fat) and water ad libitum. Mice were dosed at 0, 1, 10, 75, and 100 mg/kg D4T in water vehicle (0.5 mL i.g.; n=10 per dose) and anesthetized using isoflurane as described above 5 hours after treatment. The abdomens of the anesthetized mice were surgically opened to expose the liver and Bioclusive adhesive was placed over the entire exposed area. IR images of the liver region were acquired and analyzed as detailed in FIG. 28. […] Quantification of the IR signal depicted in the image is shown in the bottom left panel. Analysis of the dose response to D4T is shown in the panel to the right. Data shown are means±SEM for n=10 animals per group.
AKR mice fed a high-fat diet were treated with 75 mg/kg D4T, and their abdomens were surgically opened and covered with Bioclusive adhesive 5 hour later. […] This decrease is quantitated in the lower left panel of FIG. 31. Moreover, the dose-dependent effect of D4T on decreased liver temperature determined using IR thermography (FIG. 31, right panel) correlated well with the effect of D4T treatment on serum non-esterified fatty acid levels (r=0.91, data not shown).

The values below come from patent US6881584B1, “Infrared thermography” (SmithKline Beecham Corporation, priority 1998, dated 2005).

Molecules are shown by their SMILES.

On to `Cc1cn([C@H]2C=C[C@@H](CO)O2)c(=O)[nH]c1=O` [D4T], for which the liver temperature entry is recorded as “decrease in temperature”.
